{"source": "patent US8426408B2", "about": "“Pyrimidine inhibitors of kinases” (AbbVie Inc., priority 2009, dated 2013)", "assay_type_in_all_cases": "biochemical", "key": {"[1]": {"biological_target": "T1, Aurora A (Homo sapiens, UniProt O14965)", "T1 sequence (O14965 1-403)": "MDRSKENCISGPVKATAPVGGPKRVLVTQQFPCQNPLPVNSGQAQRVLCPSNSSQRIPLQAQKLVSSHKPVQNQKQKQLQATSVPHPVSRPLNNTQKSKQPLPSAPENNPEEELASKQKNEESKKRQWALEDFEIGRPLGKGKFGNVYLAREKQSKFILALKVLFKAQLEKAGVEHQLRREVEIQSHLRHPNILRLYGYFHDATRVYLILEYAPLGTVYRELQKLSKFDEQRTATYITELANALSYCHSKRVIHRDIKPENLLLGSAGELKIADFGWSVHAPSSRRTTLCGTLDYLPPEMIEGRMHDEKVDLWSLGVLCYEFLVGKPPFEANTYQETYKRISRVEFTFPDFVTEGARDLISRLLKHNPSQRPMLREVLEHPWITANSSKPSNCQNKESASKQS", "experiment": "Aurora A enzyme inhibition (time-resolved fluorescence, STK substrate-2)", "details": "1 mM ATP", "method": "To determine Aurora A and C activity of representative compounds of the invention, Active Aurora A or C enzyme was incubated in wells of a 384 well plate with biotinylated STK substrate-2 (Upstate), 1 mM ATP, and various concentrations of inhibitors in a Hepes buffer, pH 7.4 containing MgCl2, sodium othrovanadate, and Triton X-100. After 1 hour, the reaction was stopped with EDTA and anti-phospho-STK antibody Europium Cryptate (Upstate) and SA-XL665 (Upstate) were added to detect the phosphopeptide. The amount of phosphorylation was determined by the time-resolved fluorescence ratio of signals at 665 nm and 615 nm. The IC50s were calculated by an exponential fit of the inhibition values with the inhibitor concentrations using Assay Explorer software."}, "[2]": {"biological_target": "T2, Aurora B (Homo sapiens, UniProt Q96GD4)", "T2 construct": "Active Aurora B enzyme (recombinant residues 1-344)", "T2 sequence (Q96GD4 whole entry, the tested form may be a part)": "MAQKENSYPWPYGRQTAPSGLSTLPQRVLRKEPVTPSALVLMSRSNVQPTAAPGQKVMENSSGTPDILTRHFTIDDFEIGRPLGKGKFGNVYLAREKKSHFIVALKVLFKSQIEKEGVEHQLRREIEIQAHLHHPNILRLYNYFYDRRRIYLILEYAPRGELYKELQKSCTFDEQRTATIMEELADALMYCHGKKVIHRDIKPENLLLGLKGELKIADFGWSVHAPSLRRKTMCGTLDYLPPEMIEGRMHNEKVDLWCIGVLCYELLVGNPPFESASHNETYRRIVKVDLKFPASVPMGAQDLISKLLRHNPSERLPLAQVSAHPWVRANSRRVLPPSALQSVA", "T2 sequence (Q9NQS7 826-918 partner limits assumed)": "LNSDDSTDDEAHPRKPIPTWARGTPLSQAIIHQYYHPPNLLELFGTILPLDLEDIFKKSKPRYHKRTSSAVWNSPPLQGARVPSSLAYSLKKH", "experiment": "Aurora B enzyme inhibition (time-resolved fluorescence, histone H3 peptide)", "details": "1 mM ATP", "method": "To determine Aurora B activity of representative compounds of the invention, Active Aurora B enzyme (recombinant residues 1-344) and INCENP (recombinant GST fusion protein (Upstate)) were incubated in wells of a 384 well plate with biotinylated histone H3 peptide residues 1-21 (Upstate), 1 mM ATP, and various concentrations of inhibitors in a HEPES buffer, pH 7.4 containing MgCl2, sodium othrovanadate, and Triton X-100. After 1 hour, the reaction was stopped with EDTA and anti-phospho-histone H3 Europium Cryptate (Cis-Bio) and SA-APC (Phycolink, Prozyme) were added to detect the phosphopeptide. The amount of phosphorylation was determined by the time-resolved fluorescence ratio of signals at 665 nm and 615 nm. The IC50's were calculated by an exponential fit of the inhibition values with the inhibitor concentrations using Assay Explorer software."}, "[3]": {"biological_target": "KDR (Homo sapiens, UniProt P35968)", "sequence (P35968 789-1354)": "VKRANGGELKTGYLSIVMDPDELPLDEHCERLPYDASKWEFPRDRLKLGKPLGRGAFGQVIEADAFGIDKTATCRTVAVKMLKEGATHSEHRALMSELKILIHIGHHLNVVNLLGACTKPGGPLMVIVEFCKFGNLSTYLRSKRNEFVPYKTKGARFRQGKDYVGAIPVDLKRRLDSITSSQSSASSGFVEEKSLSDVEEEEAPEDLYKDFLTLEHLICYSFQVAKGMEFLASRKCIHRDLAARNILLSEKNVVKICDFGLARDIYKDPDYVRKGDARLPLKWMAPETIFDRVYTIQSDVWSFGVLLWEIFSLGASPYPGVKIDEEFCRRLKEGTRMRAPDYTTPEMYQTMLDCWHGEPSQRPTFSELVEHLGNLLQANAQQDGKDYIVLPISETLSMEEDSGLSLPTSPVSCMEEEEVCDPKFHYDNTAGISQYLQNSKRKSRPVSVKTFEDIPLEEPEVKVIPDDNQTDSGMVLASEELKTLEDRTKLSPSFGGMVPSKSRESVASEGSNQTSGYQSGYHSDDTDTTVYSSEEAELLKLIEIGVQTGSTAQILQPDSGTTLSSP", "experiment": "KDR HTRF in vitro kinase assay", "design": "purified enzyme (His6-KDR 789-1354, MW 63 kD); His6 (N)", "details": "1 mM ATP; read-out: KDR enzyme inhibition data (Ki)", "method": "To determine the activity of the various kinases, a homogenous time-resolved fluorescence (HTRF) in vitro kinase assay was used. (Mathis, G., HTRF® Technology. J Biomol Screen, 1999. 4(6): p. 309-314; Alfred J. Kolb, Paul V. Kaplita, David J. Hayes, Young-Whan Park, Christine Pernell, John S. Major and Gerard Mathis, Drug Discovery Today, 1998, 3, 333-342.)\nFor example for KDR, 7 ng/well of purified enzyme (His6-KDR 789-1354, MW 63 kD) was mixed with 0.5 μM N-biotinylated substrate (Biotin-Ahx-AEEEYFFLA-amide (SEQ. ID. 1)), various concentrations of inhibitor in reaction buffer (50 mM HEPES, pH 7.1, 10 mM MgCl2, 2 mM MnCl2, 0.1% BSA and 1 mM DTT, 40 L final volume), ATP (1 mM final conc.) in a black 384-well plate. After 60 minutes incubation at room temperature, the reaction was quenched by addition of a buffered EDTA solution (final approximate concentrations: 30 mM EDTA, 0.1% BSA, 0.1% Triton X-100 and 0.24M KF) and a solution of revelation agents (to give 0.084 ng/well streptavidin-XL-665 (Cis-Bio) and 6.5 ng/well antiphsophotyrosine mAb PT66-K Europium kryptate) was added to the reaction mixture. The quenched reaction was allowed to stand at room temperature for 3 hours and was then read in a time-resolved fluorescence detector (InVision, Perkin-Elmer) at 620 nm and 665 nm sequentially with excitation. The ratio between the signal of 620 nm and 665 nm was used in the calculation of the IC50."}}}
{"compound": "CCn1cc(Nc2ncc(C(F)(F)F)c(N[C@@H]3[C@H]4CC[C@H](C4)[C@@H]3C(N)=O)n2)cn1", "note": "[Example 80, (1R,2S,3R,4S)-3-{[2-[(1-ethyl-1H-pyrazol-4-yl)amino]-5-(trifluoromethyl)pyrimidin-4-yl]amino}bicyclo[2.2.1]heptane-2-carboxamide]", "values": [{"measurement": "Ki", "setting": "[1]", "value": "< 100", "unit": "nM"}, {"measurement": "Ki", "setting": "[2]", "value": "< 100", "unit": "nM"}, {"measurement": "Ki", "setting": "[3]", "value": "< 100", "unit": "nM"}]}
{"compound": "NC(=O)[C@@H]1[C@H](Nc2nc(Nc3cnn(CCO)c3)ncc2Cl)[C@H]2C=C[C@@H]1C2", "note": "[Example 65, (1S,2S,3R,4R)-3-[(5-chloro-2-{[1-(2-hydroxyethyl)-1H-pyrazol-4-yl]amino}pyrimidin-4-yl)amino]bicyclo[2.2.1]hept-5-ene-2-carboxamide]", "values": [{"measurement": "Ki", "setting": "[1]", "value": "< 100", "unit": "nM"}, {"measurement": "Ki", "setting": "[2]", "value": "< 100", "unit": "nM"}, {"measurement": "Ki", "setting": "[3]", "value": "< 100", "unit": "nM"}]}
{"compound": "(1S,2S,3R,4R)—N-cyclopropyl-3-{[2-[(1-methyl-1H-pyrazol-4-yl)amino]-5-(trifluoromethyl)pyrimidin-4-yl]amino}bicyclo[2.2.1]hept-5-ene-2-carboxamide and (1R,2R,3S,4S)—N-cyclopropyl-3-{[2-[(1-methyl-1H-pyrazol-4-yl)amino]-5-(trifluoromethyl)pyrimidin-4-yl]amino}bicyclo[2.2.1]hept-5-ene-2-carboxamide [Example 70]", "values": [{"measurement": "Ki", "setting": "[1]", "value": "< 100", "unit": "nM"}, {"measurement": "Ki", "setting": "[2]", "value": "< 100", "unit": "nM"}, {"measurement": "Ki", "setting": "[3]", "value": "< 100", "unit": "nM"}]}
{"compound": "Cn1cc(Nc2ncc(F)c(N[C@@H]3C[C@H]4CC[C@@H]3C4)n2)cn1.Cn1cc(Nc2ncc(F)c(N[C@H]3C[C@@H]4CC[C@H]3C4)n2)cn1", "note": "(mixture of isomers) [Example 3, N^4-[(1S,2S,4R)-bicyclo[2.2.1]hept-2-yl]-5-fluoro-N^2-(1-methyl-1H-pyrazol-4-yl)pyrimidine-2,4-diamine and N^4-[(1R,2R,4S)-bicyclo[2.2.1]hept-2-yl]-5-fluoro-N^2-(1-methyl-1H-pyrazol-4-yl)pyrimidine-2,4-diamine]", "values": [{"measurement": "Ki", "setting": "[1]", "value": "1000 to 5000", "unit": "nM"}, {"measurement": "Ki", "setting": "[2]", "value": "100 to 1000", "unit": "nM"}, {"measurement": "Ki", "setting": "[3]", "value": "1000 to 5000", "unit": "nM"}]}
{"compound": "NC(=O)[C@@H]1[C@H](Nc2nc(Nc3cnn(CCN4CCCC4)c3)ncc2Cl)[C@H]2C=C[C@@H]1C2", "note": "(racemic) [Example 34, (1S,2S,3R,4R)-3-[(5-chloro-2-{[1-(2-pyrrolidin-1-ylethyl)-1H-pyrazol-4-yl]amino}pyrimidin-4-yl)amino]bicyclo[2.2.1]hept-5-ene-2-carboxamide and (1R,2R,3S,4S)-3-[(5-chloro-2-{[1-(2-pyrrolidin-1-ylethyl)-1H-pyrazol-4-yl]amino}pyrimidin-4-yl)amino]bicyclo[2.2.1]hept-5-ene-2-carboxamide]", "values": [{"measurement": "Ki", "setting": "[1]", "value": "< 100", "unit": "nM"}, {"measurement": "Ki", "setting": "[2]", "value": "< 100", "unit": "nM"}, {"measurement": "Ki", "setting": "[3]", "value": "< 100", "unit": "nM"}]}
{"compound": "NC(=O)[C@@H]1[C@H](Nc2nc(Nc3cnn([C@H]4CCNC4)c3)ncc2Cl)[C@H]2C=C[C@@H]1C2", "note": "[Example 72, (1S,2S,3R,4R)-3-{[5-chloro-2-({1-[(3S)-pyrrolidin-3-yl]-1H-pyrazol-4-yl}amino)pyrimidin-4-yl]amino}bicyclo[2.2.1]hept-5-ene-2-carboxamide]", "values": [{"measurement": "Ki", "setting": "[1]", "value": "< 100", "unit": "nM"}, {"measurement": "Ki", "setting": "[2]", "value": "< 100", "unit": "nM"}, {"measurement": "Ki", "setting": "[3]", "value": "< 100", "unit": "nM"}]}
{"compound": "CN(C)C(=O)Cn1cc(Nc2ncc(Cl)c(N[C@@H]3[C@H](C(N)=O)[C@H]4C=C[C@@H]3C4)n2)cn1.CN(C)C(=O)Cn1cc(Nc2ncc(Cl)c(N[C@H]3[C@@H](C(N)=O)[C@@H]4C=C[C@H]3C4)n2)cn1", "note": "(mixture of isomers) [Example 54, (1S,2S,3R,4R)-3-{[5-chloro-2-({1-[2-(dimethylamino)-2-oxoethyl]-1H-pyrazol-4-yl}amino)pyrimidin-4-yl]amino}bicyclo[2.2.1]hept-5-ene-2-carboxamide and (1R,2R,3S,4S)-3-{[5-chloro-2-({1-[2-(dimethylamino)-2-oxoethyl]-1H-pyrazol-4-yl}amino)pyrimidin-4-yl]amino}bicyclo[2.2.1]hept-5-ene-2-carboxamide]", "values": [{"measurement": "Ki", "setting": "[1]", "value": "< 100", "unit": "nM"}, {"measurement": "Ki", "setting": "[2]", "value": "< 100", "unit": "nM"}, {"measurement": "Ki", "setting": "[3]", "value": "< 100", "unit": "nM"}]}
{"compound": "NC(=O)[C@@H]1[C@H](Nc2nc(Nc3cnn(CC(F)(F)F)c3)ncc2Cl)[C@H]2C=C[C@@H]1C2", "note": "[Example 66, (1S,2S,3R,4R)-3-[(5-chloro-2-{[1-(2,2,2-trifluoroethyl)-1H-pyrazol-4-yl]amino}pyrimidin-4-yl)amino]bicyclo[2.2.1]hept-5-ene-2-carboxamide]", "values": [{"measurement": "Ki", "setting": "[1]", "value": "< 100", "unit": "nM"}, {"measurement": "Ki", "setting": "[2]", "value": "< 100", "unit": "nM"}, {"measurement": "Ki", "setting": "[3]", "value": "< 100", "unit": "nM"}]}
{"compound": "CNC(=O)Cn1cc(Nc2ncc(Br)c(N[C@H]3[C@@H](C(N)=O)[C@@H]4C=C[C@H]3C4)n2)cn1", "note": "[Example 77, (1S,2S,3R,4R)-3-{[5-bromo-2-({1-[2-(methylamino)-2-oxoethyl]-1H-pyrazol-4-yl}amino)pyrimidin-4-yl]amino}bicyclo[2.2.1]hept-5-ene-2-carboxamide]", "values": [{"measurement": "Ki", "setting": "[1]", "value": "< 100", "unit": "nM"}, {"measurement": "Ki", "setting": "[2]", "value": "< 100", "unit": "nM"}, {"measurement": "Ki", "setting": "[3]", "value": "< 100", "unit": "nM"}]}
{"compound": "NC(=O)[C@@H]1[C@H]2CC[C@H](C2)[C@@H]1Nc1nc(Nc2cnn(CCO)c2)ncc1Cl.NC(=O)[C@H]1[C@@H]2CC[C@@H](C2)[C@H]1Nc1nc(Nc2cnn(CCO)c2)ncc1Cl", "note": "(mixture of isomers) [Example 59, (1R,2S,3R,4S)-3-[(5-chloro-2-{[1-(2-hydroxyethyl)-1H-pyrazol-4-yl]amino}pyrimidin-4-yl)amino]bicyclo[2.2.1]heptane-2-carboxamide and (1S,2R,3S,4R)-3-[(5-chloro-2-{[1-(2-hydroxyethyl)-1H-pyrazol-4-yl]amino}pyrimidin-4-yl)amino]bicyclo[2.2.1]heptane-2-carboxamide]", "values": [{"measurement": "Ki", "setting": "[1]", "value": "< 100", "unit": "nM"}, {"measurement": "Ki", "setting": "[2]", "value": "< 100", "unit": "nM"}, {"measurement": "Ki", "setting": "[3]", "value": "< 100", "unit": "nM"}]}
{"compound": "CCn1cc(Nc2ncc(Br)c(N[C@@H]3[C@H](C(=O)NC)[C@H]4C=C[C@@H]3C4)n2)cn1.CCn1cc(Nc2ncc(Br)c(N[C@H]3[C@@H](C(=O)NC)[C@@H]4C=C[C@H]3C4)n2)cn1", "note": "(mixture of isomers) [Example 49, (1S,2S,3R,4R)-3-({5-bromo-2-[(1-ethyl-1H-pyrazol-4-yl)amino]pyrimidin-4-yl}amino)-N-methylbicyclo[2.2.1]hept-5-ene-2-carboxamide and (1R,2R,3S,4S)-3-({5-bromo-2-[(1-ethyl-1H-pyrazol-4-yl)amino]pyrimidin-4-yl}amino)-N-methylbicyclo[2.2.1]hept-5-ene-2-carboxamide]", "values": [{"measurement": "Ki", "setting": "[1]", "value": "< 100", "unit": "nM"}, {"measurement": "Ki", "setting": "[2]", "value": "< 100", "unit": "nM"}, {"measurement": "Ki", "setting": "[3]", "value": "< 100", "unit": "nM"}]}
{"compound": "(1S,2S,3R,4R)-3-{[5-chloro-2-({1-[2-(4-methylpiperazin-1-yl)ethyl]-1H-pyrazol-4-yl}amino)pyrimidin-4-yl]amino}bicyclo[2.2.1]hept-5-ene-2-carboxamide and (1R,2R,3S,4S)-3-{[5-chloro-2-({1-[2-(4-methylpiperazin-1-yl)ethyl]-1H-pyrazol-4-yl}amino)pyrimidin-4-yl]amino}bicyclo[2.2.1]hept-5-ene-2-carboxamide [Example 46]", "values": [{"measurement": "Ki", "setting": "[1]", "value": "< 100", "unit": "nM"}, {"measurement": "Ki", "setting": "[2]", "value": "< 100", "unit": "nM"}, {"measurement": "Ki", "setting": "[3]", "value": "< 100", "unit": "nM"}]}
